# Measured values published in PubChem BioAssay AID1224920 (Broad Institute, 2016).
# Values joined by “and” are separate entries in the source; they are usually repeats but may differ in a detail not shown here. Equal values may be shown once. Active and inactive are the calls of the source.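 Rule for the calls: active = IC50 no higher than ten times the top tested dose; inconclusive = flat fit with 30 to 70% inhibition, or poor fit; inactive = IC50 above ten times the top dose.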
# Test system: Clostridium difficile clinical isolate growth, OD600, 24 h
# Test: growth modulation of Clostridium difficile isolate – OD600, 9-point, retest, dose response (AID 1224920);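 note: inhibitors lower culture turbidity so OD600 falls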
row,Compound,IC50
1,O=C(C[C@@H]1CC[C@@H]2[C@H](COC[C@H](O)CN2C(=O)Nc2ccc(C(F)(F)F)cc2)O1)NC1Cc2ccccc2C1,17.5 µM
2,Fc1cccc(-c2ccc(C3[C@@H]4CN(Cc5ccccc5F)C[C@H]3N4)cc2)c1 (stereo partly drawn),6.44 µM and 6.35 µM
3,O=S(=O)(Cc1ccccc1)N1C[C@@H]2N[C@H](C1)C2c1ccc(-c2ccccc2)cc1 (stereo partly drawn),59.7 µM
4,OC[C@H]1[C@@H](c2ccc(-c3ccc(F)cc3)cc2)[C@@H]2CN(CCC(F)(F)F)CCCCN12,72.8 µM
5,O=C(Nc1ccccc1F)N1C[C@@H]2N[C@H](C1)C2c1ccc(/C=C/c2ccccc2)cc1 (stereo partly drawn),12.5 µM
6,O=C(C[C@H]1CC[C@H]2[C@@H](COC[C@@H](O)CN2C(=O)Nc2ccc(C(F)(F)F)cc2)O1)NC1Cc2ccccc2C1,16.6 µM
7,Cc1ccccc1-c1ccc(C2[C@H]3CNC[C@@H]2N3C(=O)Nc2ccc(C(F)(F)F)cc2)cc1 (stereo partly drawn),17.4 µM
8,COc1cc(CN2[C@@H]3CNC[C@H]2C3c2ccc(/C=C/c3ccccc3)cc2)cc(OC)c1 (stereo partly drawn),12.2 µM
9,COc1ccccc1CN1C[C@@H]2N[C@H](C1)C2c1ccc(-c2ccccc2)cc1 (stereo partly drawn),13.3 µM
10,Cc1ccccc1-c1ccc(C2[C@@H]3CN(C(=O)C4CCCCC4)C[C@H]2N3)cc1 (stereo partly drawn),60.7 µM
11,COc1ccccc1NC(=O)N1CCCCN2[C@@H](CO)[C@H](c3ccc(-c4cccc(C)c4)cc3)[C@@H]2C1,93.9 µM
12,O=C(c1cnccn1)N1CC(=O)N2[C@H](C1)[C@@H](c1ccc(C#CCc3ccccc3)cc1)[C@@H]2CO,> 240 µM (inactive)
13,O=C(C[C@H]1CC[C@H]2[C@@H](COC[C@H](O)CN2C(=O)Nc2ccc(Cl)c(Cl)c2)O1)NC1CCC1,3.65 µM
14,COc1ccccc1CN1C[C@@H]2N[C@H](C1)C2c1ccc(/C=C/c2ccccc2)cc1 (stereo partly drawn),3.7 µM and 19 µM
15,O=C(Nc1ccc(C(F)(F)F)cc1)N1[C@@H]2CNC[C@H]1C2c1ccc(-c2ccccc2)cc1 (stereo partly drawn),18.2 µM and 28.6 µM
16,COc1ccc(-c2ccc(C3[C@@H]4CN(Cc5cc(OC)cc(OC)c5)C[C@H]3N4)cc2)cc1 (stereo partly drawn),6.55 µM and 25.8 µM
17,N#Cc1cccc(-c2ccc(C3[C@@H]4CN(C(=O)Nc5ccc(C(F)(F)F)cc5)C[C@H]3N4)cc2)c1 (stereo partly drawn),11.8 µM and 7.72 µM
18,COc1ccc(C#Cc2ccc([C@@H]3[C@H](CO)N4CCCCN(C(=O)Nc5cccc(F)c5)C[C@@H]34)cc2)cc1,7.68 µM
19,COc1ccc(C#Cc2ccc([C@H]3[C@@H](CO)N4CCCCN(Cc5ccccc5F)C[C@H]34)cc2)cc1,4.95 µM

row,Compound,IC50
1,Cc1cccc(S(=O)(=O)N2C[C@@H]3N[C@H](C2)C3c2ccc(-c3ccccc3C)cc2)c1 (stereo partly drawn),12.5 µM
2,Fc1cccc(-c2ccc([C@@H]3[C@@H]4CN(Cc5nccs5)C[C@H]3N4)cc2)c1,66.3 µM
3,OC[C@@H]1[C@H](c2ccc(C3=CCCCC3)cc2)[C@@H]2CN(CCC(F)(F)F)CCCCN12,34.9 µM
4,O=C(Nc1cccc(Cl)c1)N1[C@@H]2CNC[C@H]1C2c1ccc(-c2ccccc2)cc1 (stereo partly drawn),44.8 µM and 74.3 µM
5,C/C=C/c1ccc(C2[C@H]3CNC[C@@H]2N3Cc2cccc(F)c2)cc1 (stereo partly drawn),31.1 µM
6,COc1cc(CN2[C@@H]3CNC[C@H]2C3c2ccc(-c3ccccc3C)cc2)cc(OC)c1 (stereo partly drawn),18.8 µM
7,Cc1ccccc1-c1ccc([C@@H]2[C@H](CO)N3CCCCN(C(=O)Nc4cccc(F)c4)C[C@@H]23)cc1,14.7 µM
8,C(=C\c1ccc(C2[C@@H]3CN(Cc4nccs4)C[C@H]2N3)cc1)/c1ccccc1 (stereo partly drawn),16.7 µM and 67.5 µM
9,N#Cc1cccc(-c2ccc(C3[C@H]4CNC[C@@H]3N4Cc3ccc(F)cc3)cc2)c1 (stereo partly drawn),29.4 µM
10,Fc1cccc(CN2C[C@@H]3N[C@H](C2)C3c2ccc(-c3ccccc3)cc2)c1 (stereo partly drawn),8.38 µM and 10.4 µM
11,COc1ccc(S(=O)(=O)N2CCCCN3[C@H](CO)[C@H](c4ccc(C5=CCCCC5)cc4)[C@H]3C2)cc1,29.5 µM
12,COc1ccc(S(=O)(=O)N2[C@@H]3CNC[C@H]2C3c2ccc(-c3cccc(C)c3)cc2)cc1 (stereo partly drawn),83 µM
13,COc1ccccc1CN1C[C@@H]2N[C@H](C1)C2c1ccc(-c2ccccc2OC)cc1 (stereo partly drawn),35.3 µM and 38.3 µM
14,COc1ccccc1C#Cc1ccc2c(c1)[C@@H]1[C@@H](CCN1C(=O)c1ccncc1)[C@@H](CO)N2,> 120 µM (inactive)
15,Cc1ccc(S(=O)(=O)N2[C@@H]3CNC[C@H]2C3c2ccc(-c3cccc(C)c3)cc2)cc1 (stereo partly drawn),32.1 µM
16,COc1cccc(-c2ccc(C3[C@@H]4CN(S(=O)(=O)c5ccccc5F)C[C@H]3N4)cc2)c1 (stereo partly drawn),82 µM
17,COc1cccc(S(=O)(=O)N2C[C@@H]3N[C@H](C2)C3c2ccc(-c3cccc(C)c3)cc2)c1 (stereo partly drawn),8.9 µM
18,CCCNC(=O)C[C@H]1CC[C@@H]2[C@H](COC[C@@H](O)CN2C(=O)Nc2ccc(Cl)c(Cl)c2)O1,20.9 µM
19,Cc1ccccc1-c1ccc(C2[C@@H]3CN(C(=O)Nc4cccc(F)c4)C[C@H]2N3)cc1 (stereo partly drawn),39 µM
